Source: US5728727A, “Antiosteoporotic compound” (American Home Products Corporation, priority 1996, dated 1998)
Each block holds one compound with its values, some of them ahead of it.

Experiments:
calcitonin receptor [1] = molecular target: T1, calcitonin receptor (Homo sapiens, UniProt P30988); experiment: calcitonin agonist test: cAMP generation in T-47D cells; type: cell-based; settings: for cAMP: basal 1
T1 construct: host or cells: T-47D
T1 sequence (P30988 25-474): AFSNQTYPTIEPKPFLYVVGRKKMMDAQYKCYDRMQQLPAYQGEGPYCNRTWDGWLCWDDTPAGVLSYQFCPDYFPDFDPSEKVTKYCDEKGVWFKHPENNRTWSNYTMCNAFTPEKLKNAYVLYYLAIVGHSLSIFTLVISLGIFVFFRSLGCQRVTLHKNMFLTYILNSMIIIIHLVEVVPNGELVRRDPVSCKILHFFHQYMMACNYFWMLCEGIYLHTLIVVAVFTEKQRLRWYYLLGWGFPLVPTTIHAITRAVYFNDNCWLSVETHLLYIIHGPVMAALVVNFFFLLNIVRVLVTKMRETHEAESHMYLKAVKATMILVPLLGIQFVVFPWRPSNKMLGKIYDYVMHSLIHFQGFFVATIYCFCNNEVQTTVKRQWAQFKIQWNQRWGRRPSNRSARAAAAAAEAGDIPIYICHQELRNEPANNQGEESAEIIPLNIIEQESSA
Excerpt: The second in vitro standard pharmacological test procedure determines the ability of the compound to be evaluated to act as a calcitonin agonist, by measuring the levels of cAMP produced in response to the test compound. The following briefly describes the procedure used and the results obtained.
cAMP was generated in T-47D cells (a human mammary carcinoma cell line available from the American Type Culture Collection, Rockville, Md., USA) according to the following procedure. […] After the incubation was completed, the growth medium was aspirated from the cells in the plate.
Fifty ul of antiserum was added to all wells with the exception of the non-specific binding wells (NSB). Fifty ul of the SPA anti-rabbit reagent was added to all wells.
Intracellular cAMP levels in the T-47D cells following salmon calcitonin stimulation for 10 rain at 37° C. are as follow: […]

[2] = effect on serum calcium levels in young growing rats; type: in vivo, rat; parameters: Serum Calcium: unit not given here; settings: for Serum Calcium: mean
Experimental: {5R*-[6R*, 7S*, 8R*, 9R*, 12S*, 16S*, 18S*, 19S*, (13E)]} 4, 7, 19-Trihydroxy-2, 6, 8, 12, 12, 14, 16, 18-heptamethyl-6, 7, 8, 9, 10, 11, 12, 15, 16, 17, 18, 19-dodecahydro-1, 19:5, 9-diepoxybenzocyclooctadecen-3(5H)-one was also evaluated in an in vivo standard pharmacological test procedure that measures the effect of the test compound on serum calcium levels. Agents that inhibit bone resorption, such as calcitonin, regulate circulating calcium levels by inhibiting osteoclast mediated osteolysis and thereby inhibit the release of calcium from bone. The decrease in serum calcium levels following drug treatment indicates bone sparing activity. Calcitonin acts on specific membrane receptors of the bone resorbing osteoclast cells eliciting second messenger events such as increased cAMP generation that leads to inhibition of the cell's motility and inhibition of its bone resorbing functional activity. If bone turnover activity is high, such as in the young growing rat, this rapid inhibition in bone resorption is reflected by a transient decrease in circulating calcium. […] Young adult male rats weighing 160-170 g were held for at least 72 hours after receipt to acclimatize to colony conditions and then were randomly assigned to groups of 5-7 rats/group for treatment. The rats were administered vehicle or test compound, and at intervals between 0.5 and 3 hours after dosing, 1.0 ml of blood was collected from each rat under ketamin/acepromazine anesthesia via tail artery or (terminal via) cardiac puncture. Serum was evaluated for total calcium using a NOVA 7+7 blood analyzer.
In this standard pharmacological test procedure, all animals were dosed at 0 hours. For animals treated with the compound of Formula I, animals were bled sequentially. For animals treated with salmon calcitonin and untreated normal animals, a different group was used at each time point.

calcitonin receptor [3] = molecular target: T2, calcitonin receptor (Rattus norvegicus, UniProt P32214); experiment: binding to the calcitonin receptor (125I-salmon calcitonin displacement, rat renal plasma membrane); parameters: species or system rat (Sprague-Dawley)
T2 construct: Kidneys were removed and placed in ice cold saline; from tissue; host or cells: Sprague-Dawley rat kidney, renal plasma membrane
T2 sequence (P32214 25-479 isoform P32214-2 limits assumed): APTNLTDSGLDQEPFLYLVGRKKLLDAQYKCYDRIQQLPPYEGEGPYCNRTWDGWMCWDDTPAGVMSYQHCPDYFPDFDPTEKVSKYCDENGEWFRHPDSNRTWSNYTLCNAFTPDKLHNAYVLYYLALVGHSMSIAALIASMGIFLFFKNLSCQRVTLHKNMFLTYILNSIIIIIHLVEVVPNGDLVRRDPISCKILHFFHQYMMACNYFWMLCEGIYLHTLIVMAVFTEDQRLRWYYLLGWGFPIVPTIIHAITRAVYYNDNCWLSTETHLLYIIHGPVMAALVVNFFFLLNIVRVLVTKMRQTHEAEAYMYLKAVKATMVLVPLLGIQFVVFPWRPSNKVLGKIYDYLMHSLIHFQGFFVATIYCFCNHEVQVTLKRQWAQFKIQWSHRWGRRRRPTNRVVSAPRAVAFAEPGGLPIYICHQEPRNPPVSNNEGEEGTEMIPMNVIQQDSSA
Experimental: The first in vitro standard pharmacological test procedure measures the ability of the compound to be evaluated to bind to the calcitonin receptor. The following describes the procedure used and the results obtained.
Adult female or male Sprague-Dawley rats (250-350 gm), were euthanized by CO2 asphyxiation. Kidneys were removed and placed in ice cold saline; all subsequent procedures were carded out at 4° C. Kidneys were decapsulated and coarsely minced with scissors. […]
Samples were incubated for 1 hour at room temperature. […] The filters were counted for a period of 2 minutes per sample utilizing an LKB Betaplate Reader.

osteoclasts = experiment: inhibition of bone resorption by osteoclasts (pits excavated per bone slice); type: cell-based; settings: Osteoclast, neonatal rat osteoclasts on bovine cortical bone slices, 24 h
Experimental: Briefly, osteoclasts were isolated from neonatal rat long bones by mincing the bones in Medium 199 containing Hank's salts (3 ml per 10 bones from each of 5 animals). Osteoclasts were dislodged from the bone fragments by aspirating the bone fragments 50 times into and out of a transfer pipette. 100 μl of the resulting cell suspension from each animal was then plated onto each of 3 (per dose) 4.4 mm^2 slices of devitalized bovine femoral cortical bone that had been placed in the wells of a 96 well plate and pre-wetted with 100 μl of the medium. The osteoclasts were then allowed to adhere for 25 minutes at 37° C. The slices, with adherent osteoclasts, were then rinsed in 5 ml of medium to remove non-adherent cells. The slices were then transferred to Medium 199 containing Earle's salts with only 0.7 g/L NaHCO3 (to ensure that the medium equilibrates to a pH of 6.8-7.1 in a 5% CO2 atmosphere) and 10% heat-inactivated fetal bovine serum. […] The excavations (pits) made by the osteoclasts in the surface of the bone were visualized by staining with 1% toluidine blue for 3 minutes and bone resorption quantified microscopically by counting the number of pits excavated per slice.

- EC50 (calcitonin receptor [1]; 10 min at 37° C., 10 μM IBMX, read-out: EC50, cAMP production (converted)): 0.616 µM
- calcitonin agonist activity (in words) (calcitonin receptor [1]; cAMP): potent calcitonin agonist
- inhibition of the binding of calcitonin to the calcitonin receptor (in words) (calcitonin receptor [3]): competitively inhibited
- IC50 (calcitonin receptor [3]; 1 hour at room temperature): 20.5 µM
- IC50 (osteoclasts): 0.8 µg/mL
Compound: CC1=C2O[C@]3(O)C=C2C(=C(O)C1=O)[C@@H]1O[C@H](CC[C@H](C)/C=C(\C)C[C@@H](C)C[C@@H]3C)[C@H](C)[C@H](O)[C@H]1C (relative stereo) [Formula I, {5R*-[6R*, 7S*, 8R*, 9R*, 12S*, 16S*, 18S*, 19S*, (13E)]} 4,7, 19-Trihydroxy-2,6,8, 12, 12, 14, 16, 18-heptamethyl-6,7,8,9, 10, 11, 12, 15, 16, 17, 18, 19-dodecahydro-1, 19:5,9-diepoxybenzocyclooctadecen-3(5H)-one]
- Serum Calcium ([2]; 10 mg/kg, i.p., 0.5 hours, normals 10.92): 10.73
- Serum Calcium ([2]; 10 mg/kg, i.p., 1.5 hours, normals 10.88, p < 0.01): 10.21
- Serum Calcium ([2]; 10 mg/kg, i.p., 3.0 hours, normals 10.40, p < 0.01): 9.99
- Serum Calcium ([2]; 30 mg/kg, i.p., 0.5 hours, normals 10.92): 10.60
- Serum Calcium ([2]; 30 mg/kg, i.p., 1.5 hours, normals 10.88, p < 0.05): 10.43
- Serum Calcium ([2]; 30 mg/kg, i.p., 3.0 hours, normals 10.40): 10.18
- Serum Calcium ([2]; 100 mg/kg, i.p., 0.5 hours, normals 10.92, p < 0.01): 10.29
- Serum Calcium ([2]; 100 mg/kg, i.p., 1.5 hours, normals 10.88, p < 0.01): 10.19
- Serum Calcium ([2]; 100 mg/kg, i.p., 3.0 hours, normals 10.40, p < 0.05): 10.06
- reduction of serum calcium levels (in words) ([2]; young growing rats, summary statement): significantly reduced serum calcium levels

Compound: Salmon Calcitonin
- cAMP (calcitonin receptor [1]; calcitonin 0.0001 nM, 10 min at 37° C.): 2 pmol/mL
- cAMP (calcitonin receptor [1]; calcitonin 0.001 nM, 10 min at 37° C.): 13 pmol/mL
- cAMP (calcitonin receptor [1]; calcitonin 0.01 nM, 10 min at 37° C.): 105 pmol/mL
- cAMP (calcitonin receptor [1]; calcitonin 0.1 nM, 10 min at 37° C.): > 640 pmol/mL
- Serum Calcium ([2]; 5 IU/rat, s.c., 0.5 hours, normals 10.92, p < 0.01): 8.17
- Serum Calcium ([2]; 5 IU/rat, s.c., 1.5 hours, normals 10.88, p < 0.01): 7.45
- Serum Calcium ([2]; 5 IU/rat, s.c., 3.0 hours, normals 10.40, p < 0.01): 6.65
